From patent US10201532B2, “Compounds and their use” (ALLECRA THERAPEUTICS GMBH, priority 2010, dated 2019)

Key:
[1] = system: KPC-3 expressing E. coli (J53 R6206); experiment: microbe, parasite or virus in culture; assay type: cell-based, Escherichia coli; conditions: no BLI; E. coli J53 R6206
Protocol: The β-lactam compound was tested for in vitro antibacterial activities by the broth micro-dilution or agar dilution method as specified in documents published by Clinical and Laboratory Standards Institute (CLSI), USA (formerly NCCLS). Approved standard M7-A7, January 2006, CLSI, Wayne, Pa., USA and M100-S18, January 2008, CLSI, Wayne, Pa., USA.
In agar dilution method briefly, stock solutions of the cephalosporins for veterinary use (e.g. 2 mg/mL) was made in water, 0.1M phosphate buffers or appropriate solvents and the solution was serially two fold diluted. Compound-1 was dissolved in water and Tazobactam (comparator BLI) in 0.1M phosphate buffer, pH 6.0 to get a solution of 1 mg/mL. Cephalosporins were screened in a concentration range of 0.5-32 μg/mL. For combination, Tazobactam or the Compound-1 described herein were tested at a fixed concentration of 4 μg/mL along with the cephalosporins concentration ranging from 0.5 to 32 μg/mL. […] The compound of formula (I) and Tazobactam were also tested individually. The bacterial inoculum was prepared by picking 3 to 5 well isolated bacterial colonies with the same morphological appearance from an 18-24 h old culture and adjusting the turbidity of the saline suspension to 0.5 McFarland turbidity standard equivalent to a bacterial population of ˜1×10^8 CFU per mL of suspension. The suspension was diluted 1:10 in saline to get a bacterial population of ˜1×10^7 CFU/mL as inoculum. This bacterial inoculum was inoculated onto the prepared petri dishes by a multipoint inoculator with each inoculum spot containing ˜1×10^4 CFU of the bacterial strain. The inoculated petri dishes were incubated at 35° C. in an ambient atmosphere for 18-20 h.

[2] = system: KPC-2 producing K. pneumoniae (ATCC BAA-1705); experiment: Synergistic broth micro-dilution MIC (checkerboard); assay type: cell-based, Klebsiella pneumoniae; conditions: ATCC BAA-1705; for MIC: Klebsiella pneumoniae, ATCCBAA1705, no BLI, read-out: MIC of antibiotic alone (no BLI)
[3] = system: KPC-3 expressing E. coli (J53 R6206); experiment: as above; assay type: cell-based, Escherichia coli
E. coli Ecoli233 (KPC3) = experiment: Synergistic broth micro-dilution MIC; assay type: cell-based, Escherichia coli
[4] = system: KPC2 K. pneumoniae ATCC BAA 1705; experiment: Neutropenic mice thigh infection model (human adapted model); assay type: in vivo; conditions: Doripenem 70 mg/kg fractionated over 5.5 h; end point 8 h
Protocol: Female Swiss Albino mice weighing 24-30 g were used for all studies. Study protocols were reviewed and approved by Institutional Animal Ethical Committee, Orchid Research Laboratories Limited. Mice were rendered neutropenic by intra-peritoneal cyclophosphamide injections. Log phase culture in brain heart infusion broth was injected in to mice thighs. Imipenem or Doripenen alone or in combination were administered sub-cutaneously in decreasing fractionated doses every 15 minutes over the period of 5.5 h (Flückiger, U. et al. “Integration of pharmacokinetics and pharmacodynamics of Imipenem in a human-adapted mouse model’. Antimicrobial Agents and Chemother, 1991, 35(9): 1905-1910). The Compound-1 or tazobactam was administered sub-cutaneously as bolus dose at the start of dosing. Efficacy end point was 6 h in Imipenem studies and 8 h in Doripenen studies.
Three experiments were carried out where Doripenen alone or in combination with compound-1 or tazobactam (two experiments) were evaluated. Doripenem 70 mg/kg was administered in fractionated doses over the period of 5.5 h (Fluckiger, U. et al. “Integration of pharmacokinetics and pharmacodynamics of Imipenem in a human-adapted mouse model’. Antimicrobial Agents and Chemother., 1991, 35(9): 1905-1910). Compound-1 or tazobactam was administered as bolus dose at initiation of therapy. Efficacy end point was 8 h after initiation of therapy.

[5] = system: KPC2 K. pneumoniae ATCC BAA 1705; experiment: Mice systemic infection model; assay type: in vivo; conditions: Klebsiella pneumoniae, BAA1705; mice, sub-cutaneous; read-out: ED50 of Doripenem alone
Protocol: Female Swiss Albino mice, weighing 18-22 g were used for all studies. For each dose group, 5 or 6 mice were included. Study protocols were reviewed and approved by Institutional Animal Ethical Committee, Orchid Research Laboratories Limited. Mice were housed in individually ventilated cages provided with food and water ad libitum, throughout the study period. From overnight culture in Brain-Heart Infusion agar medium, challenge inoculum with required bacterial density was prepared in normal saline containing Hog gastric mucin. In studies involved with doripenem, washed bacterial cells was used. Each mouse was infected […] inoculum by intra-peritoneal injection.
Infected mice were dosed sub-cutaneously, with drug preparations at three different time points post-infection.
Imipenem with BLI combinations: Increasing concentrations of Imipenem as single agent or in combination with fixed concentration of BLIs were used to dose infected mice, sub-cutaneously. In this experiment Imipenem was always administered along with cilastatin. Doripenem with BLI combinations: Increasing concentrations of doripenem as single agent or in combination with fixed concentration of BLIs were used to dose infected mice, sub-cutaneously.
Survival of the treated mice were monitored twice a day, up to 7 days post-infection. Efficacy dose 50 (ED50) was calculated by Reed and Muench method (Reed, L. J.; Muench, H. “A simple method of estimating fifty percent endpoints”. The American Journal of Hygiene, 1938, 27: 493-497.).

## CC1=C(C(=O)O)N2C(=O)[C@@H](NC(=O)[C@H](N)c3ccc(O)cc3)[C@H]2SC1 [Cefadroxil]
[1]
  MIC of veterinary cephalosporin alone (no BLI): >32 µg/mL
[2]
  MIC: > 64 µg/mL

## NC(=O)c1cc[n+](CC2=C(C(=O)[O-])N3C(=O)[C@@H](NC(=O)Cc4cccs4)[C@H]3SC2)cc1 [Cefalonium]
[1]
  MIC of veterinary cephalosporin alone (no BLI): 32 µg/mL
[2]
  MIC: > 64 µg/mL

## CO/N=C(\C(=O)N[C@@H]1C(=O)N2C(C(=O)[O-])=C(C[N+]3(C)CCCC3)CS[C@H]12)c1csc(N)n1 [Cefepime]
[3]
  MIC of antibiotic alone (no BLI): >16 µg/mL
[2]
  MIC: > 128 µg/mL

## CO/N=C(\C(=O)N[C@@H]1C(=O)N2C(C(=O)O)=C(COC(C)=O)CS[C@H]12)c1csc(N)n1 [Cefotaxime]
[3]
  MIC of antibiotic alone (no BLI): >32 µg/mL
[2]
  MIC: > 128 µg/mL

## CO/N=C(\C(=O)N[C@@H]1C(=O)N2C(C(=O)[O-])=C(C[n+]3cccc4c3CCCC4)CS[C@H]12)c1csc(N)n1 [Cefquinome]
[1]
  MIC of veterinary cephalosporin alone (no BLI): 16 µg/mL
[2]; no BLI
  MIC of antibiotic alone (no BLI): >64 µg/mL

## CO/N=C(\C(=O)N[C@@H]1C(=O)N2C(C(=O)O)=C(CSC(=O)c3ccco3)CS[C@H]12)c1csc(N)n1 [Ceftiofur]
[1]
  MIC of veterinary cephalosporin alone (no BLI): 16 µg/mL
[2]
  MIC: > 64 µg/mL

## Nc1nc(/C(=N/O)C(=O)N[C@@H]2C(=O)N3C(C(=O)O)=C(/C=C4\CCN([C@@H]5CCNC5)C4=O)CS[C@H]23)ns1 [Ceftobiprole]
[3]
  MIC of antibiotic alone (no BLI): >32 µg/mL
[2]
  MIC: > 64 µg/mL

## CC[n+]1ccn(C[C@@]2(C)[C@H](C(=O)O)N3C(=O)C[C@H]3S2(=O)=O)n1 [Compound-2, 1-{[(2S,3S,5R)-2-Carboxy-3-methyl-4,4,7-trioxo-4-thia-1-azabicyclo[3.2.0]hept-3-yl]methyl}-3-ethyl-1H-1,2,3-triazol-3-ium]
[3]
  MIC of BLI alone: >16 µg/mL
[3]; BLI at 4 μg/mL
  MIC of Imipenem in combination with BLI: 0.5 µg/mL
  MIC of Meropenem in combination with BLI: <0.125 µg/mL
[3]; BLI at 16 μg/mL
  MIC of Imipenem in combination with BLI: 0.25 µg/mL
  MIC of Meropenem in combination with BLI: <0.125 µg/mL
[2]
  MIC of BLI alone: >16 µg/mL
[2]; BLI at 4 μg/mL
  MIC of Imipenem in combination with BLI: 4 µg/mL
  MIC of Meropenem in combination with BLI: 8 µg/mL
[2]; BLI at 16 μg/mL
  MIC of Imipenem in combination with BLI: 1 µg/mL
  MIC of Meropenem in combination with BLI: 2 µg/mL

## C=CC[n+]1ccn(C[C@@]2(C)[C@H](C(=O)O)N3C(=O)C[C@H]3S2(=O)=O)n1 [Compound-4, 1-{[(2S,3S,5R)-2-Carboxy-3-methyl-4,4,7-trioxo-4-thia-1-azabicyclo[3.2.0]hept-3-yl]methyl}-3-allyl-1H-1,2,3-triazol-3-ium]
[3]
  MIC of BLI alone: >16 µg/mL
[3]; BLI at 4 μg/mL
  MIC of Imipenem in combination with BLI: 0.5 µg/mL
  MIC of Meropenem in combination with BLI: <0.125 µg/mL
[3]; BLI at 16 μg/mL
  MIC of Imipenem in combination with BLI: 0.25 µg/mL
  MIC of Meropenem in combination with BLI: <0.125 µg/mL
[2]
  MIC of BLI alone: >16 µg/mL
[2]; BLI at 4 μg/mL
  MIC of Imipenem in combination with BLI: 4 µg/mL
  MIC of Meropenem in combination with BLI: 8 µg/mL
[2]; BLI at 16 μg/mL
  MIC of Imipenem in combination with BLI: 1 µg/mL
  MIC of Meropenem in combination with BLI: 4 µg/mL

## C[C@]1(Cn2cc[n+](CC(N)=O)n2)[C@H](C(=O)O)N2C(=O)C[C@H]2S1(=O)=O [Compound-5, 1-{[(2S,3S,5R)-2-Carboxy-3-methyl-4,4,7-trioxo-4-thia-1-azabicyclo[3.2.0]hept-3-yl]methyl}-3-(2-amino-2-oxoethyl)-1H-1,2,3-triazol-3-ium]
[3]
  MIC of BLI alone: >16 µg/mL
[3]; BLI at 4 μg/mL
  MIC of Imipenem in combination with BLI: 0.5 µg/mL
  MIC of Meropenem in combination with BLI: <0.125 µg/mL
[3]; BLI at 16 μg/mL
  MIC of Imipenem in combination with BLI: 0.25 µg/mL
  MIC of Meropenem in combination with BLI: <0.125 µg/mL
[2]
  MIC of BLI alone: >16 µg/mL
[2]; BLI at 4 μg/mL
  MIC of Imipenem in combination with BLI: 8 µg/mL
  MIC of Meropenem in combination with BLI: 8 µg/mL
[2]; BLI at 16 μg/mL
  MIC of Imipenem in combination with BLI: 1 µg/mL
  MIC of Meropenem in combination with BLI: 2 µg/mL

## CC(C)(C)OC(=O)C[n+]1ccn(C[C@@]2(C)[C@H](C(=O)O)N3C(=O)C[C@H]3S2(=O)=O)n1 [Compound-6, 1-{[(2S,3S,5R)-2-Carboxy-3-methyl-4,4,7-trioxo-4-thia-1-azabicyclo[3.2.0]hept-3-yl]methyl}-3-(2-t-butoxy-2-oxoethyl)-1H-1,2,3-triazol-3-ium]
[3]
  MIC of BLI alone: >16 µg/mL
[3]; BLI at 4 μg/mL
  MIC of Imipenem in combination with BLI: 1 µg/mL
  MIC of Meropenem in combination with BLI: 0.5 µg/mL
[3]; BLI at 16 μg/mL
  MIC of Imipenem in combination with BLI: 0.5 µg/mL
  MIC of Meropenem in combination with BLI: <0.125 µg/mL
[2]
  MIC of BLI alone: >16 µg/mL
[2]; BLI at 4 μg/mL
  MIC of Imipenem in combination with BLI: 8 µg/mL
  MIC of Meropenem in combination with BLI: 16 µg/mL
[2]; BLI at 16 μg/mL
  MIC of Imipenem in combination with BLI: 8 µg/mL
  MIC of Meropenem in combination with BLI: 4 µg/mL

## CCOC(=O)CNC(=O)C[n+]1ccn(C[C@@]2(C)[C@H](C(=O)O)N3C(=O)C[C@H]3S2(=O)=O)n1 [Compound-8, 1-{[(2S,3S,5R)-2-Carboxy-3-methyl-4,4,7-trioxo-4-thia-1-azabicyclo[3.2.0]hept-3-yl]methyl}-3-{2[(2-ethoxy-2-oxoethyl)amino]-2-oxoethyl}-1H-1,2,3-triazol-3-ium]
[3]
  MIC of BLI alone: >16 µg/mL
[3]; BLI at 4 μg/mL
  MIC of Imipenem in combination with BLI: 1 µg/mL
  MIC of Meropenem in combination with BLI: 0.25 µg/mL
[3]; BLI at 16 μg/mL
  MIC of Imipenem in combination with BLI: 0.25 µg/mL
  MIC of Meropenem in combination with BLI: <0.125 µg/mL
[2]
  MIC of BLI alone: >16 µg/mL
[2]; BLI at 4 μg/mL
  MIC of Imipenem in combination with BLI: 8 µg/mL
  MIC of Meropenem in combination with BLI: 8 µg/mL
[2]; BLI at 16 μg/mL
  MIC of Imipenem in combination with BLI: 4 µg/mL
  MIC of Meropenem in combination with BLI: 4 µg/mL

## Cc1cn(C[C@@]2(C)[C@H](C(=O)[O-])N3C(=O)C[C@H]3S2(=O)=O)c[n+]1C [Compound-13, (2S,3S,5R)-3-Methyl-3-(4-methyl-3-methyl-imidazol-3-ium-1-ylmethyl)-4,4,7-trioxo-4-thia-1-aza-bicyclo[3.2.0]heptane-2-carboxylate]
E. coli Ecoli233 (KPC3); BLI at 4 μg/mL
  MIC of Imipenem in combination with BLI: 8 µg/mL
E. coli Ecoli233 (KPC3); BLI at 16 μg/mL
  MIC of Imipenem in combination with BLI: 1 µg/mL
[2]; BLI at 4 μg/mL
  MIC of Imipenem in combination with BLI: 2 µg/mL
[2]; BLI at 16 μg/mL
  MIC of Imipenem in combination with BLI: 2 µg/mL

## C[C@@H](O)[C@H]1C(=O)N2C(C(=O)O)=C(S[C@@H]3CN[C@H](CNS(N)(=O)=O)C3)[C@H](C)[C@H]12 [Doripenem]
[4]
  Bacterial load (range), Doripenem alone: 5.4E+06-2.6E+07 CFU/thigh
[5]
  ED50: 14.1 mg/kg

## C[C@@H](O)[C@H]1C(=O)N2C(C(=O)O)=C(S[C@@H]3CN[C@H](C(=O)Nc4cccc(C(=O)O)c4)C3)[C@H](C)[C@H]12 [Ertapenem]
[2]
  MIC: > 64 µg/mL

## C[C@@H](O)[C@H]1C(=O)N2C(C(=O)O)=C([C@H]3CCCO3)S[C@H]12 [Faropenem]
[2]
  MIC: > 64 µg/mL

## C[C@@H](O)[C@H]1C(=O)N2C(C(=O)O)=C(S[C@@H]3CN[C@H](C(=O)N(C)C)C3)[C@H](C)[C@H]12 [Meropenem]
[3]
  MIC of antibiotic alone (no BLI): 2 to 4 µg/mL
[2]
  MIC: 32 to 64 µg/mL
